Earlier results on one molecule are cited in patent US20240180950A1, “Prevention and Treatment of Post-Infection Neurological Disorders and Clotting/Thrombotic Disorders” (priority 2021, published 2024).

The conditions of the data set: 250 mg, 500 mg, 1000 mg, 2000 mg, and 4000 mg per day, per person, in 2 or 3 divided doses.

With `Nc1nc2c(ncn2[C@@H]2O[C@H](COP(=O)(O)O)[C@@H](O)[C@H]2O)c(=O)[nH]1` [guanosine monophosphate], the “safety of daily human doses of guanosine monophosphate” value was “safe”.
